Results published in the supplement of paper PMC8882468.

Test system: HCI-016 (organoid from a triple-negative breast cancer xenograft)
Assay: CTG-3D luminescence at 96 h relative to day-0 seeding control (ratio to day 0); higher = more growth / less cytotoxicity; PDxO 3D drug screen, 96 h, CTG-3D normalised to day-0 seeding control.
Conditions: 0.005 µM; days in culture: 153

Structure (SMILES) | CTG-3D luminescence at 96 h
C[C@@H]1COCCN1c1cc(C2([S@](C)(=N)=O)CC2)nc(-c2cc[nH]c3nccc2-3)n1 [ceralasertib] | 1.95
CCN1CCN(Cc2ccc(Nc3ncc(F)c(-c4cc(F)c5nc(C)n(C(C)C)c5c4)n3)nc2)CC1 [abemaciclib] | 2.87
NC1(C(=O)N[C@@H](CCO)c2ccc(Cl)cc2)CCN(c2nc[nH]c3nccc2-3)CC1 [capivasertib] | 2.64
CC(C)n1nc(-c2ccc3oc(N)nc3c2)c2c(N)ncnc21 [sapanisertib] | 2.18
O=C(c1ccc(F)c(F)c1Nc1ccc(I)cc1F)N1CC(O)([C@@H]2CCCCN2)C1 [cobimetinib] | 2.26
C[C@H](NC(=O)CCC(F)(F)F)C(=O)N[C@@H]1C(=O)N(CCO)c2ncccc2-c2ccccc21 [crenigacestat] | 2.67
Cc1cc(Nc2ncc(Cl)c(Nc3ccccc3S(=O)(=O)C(C)C)n2)c(OC(C)C)cc1C1CCNCC1 [ceritinib] | 2.13
CS(=O)(=O)c1ccc(C(=O)Nc2ccc(Cl)c(-c3ccccn3)c2)c(Cl)c1 [vismodegib] | 2.91
NC(=O)c1cccc2cn(-c3ccc([C@@H]4CCCNC4)cc3)nc12 [niraparib] | 2.84

Same assay, conditions: 0.005 µM; days in culture: 172

Structure (SMILES) | CTG-3D luminescence at 96 h
C[C@@H]1COCCN1c1cc(C2([S@](C)(=N)=O)CC2)nc(-c2cc[nH]c3nccc2-3)n1 [ceralasertib] | 1.66
CCN1CCN(Cc2ccc(Nc3ncc(F)c(-c4cc(F)c5nc(C)n(C(C)C)c5c4)n3)nc2)CC1 [abemaciclib] | 1.43
NC1(C(=O)N[C@@H](CCO)c2ccc(Cl)cc2)CCN(c2nc[nH]c3nccc2-3)CC1 [capivasertib] | 1.88
CC(C)n1nc(-c2ccc3oc(N)nc3c2)c2c(N)ncnc21 [sapanisertib] | 1.85
O=C(c1ccc(F)c(F)c1Nc1ccc(I)cc1F)N1CC(O)([C@@H]2CCCCN2)C1 [cobimetinib] | 1.82
C[C@H](NC(=O)CCC(F)(F)F)C(=O)N[C@@H]1C(=O)N(CCO)c2ncccc2-c2ccccc21 [crenigacestat] | 1.71
Cc1cc(Nc2ncc(Cl)c(Nc3ccccc3S(=O)(=O)C(C)C)n2)c(OC(C)C)cc1C1CCNCC1 [ceritinib] | 1.89
CS(=O)(=O)c1ccc(C(=O)Nc2ccc(Cl)c(-c3ccccn3)c2)c(Cl)c1 [vismodegib] | 1.95
NC(=O)c1cccc2cn(-c3ccc([C@@H]4CCCNC4)cc3)nc12 [niraparib] | 2.02

Same assay, conditions: 0.005 µM; days in culture: 190

Structure (SMILES) | CTG-3D luminescence at 96 h
C[C@@H]1COCCN1c1cc(C2([S@](C)(=N)=O)CC2)nc(-c2cc[nH]c3nccc2-3)n1 [ceralasertib] | 1.72
CCN1CCN(Cc2ccc(Nc3ncc(F)c(-c4cc(F)c5nc(C)n(C(C)C)c5c4)n3)nc2)CC1 [abemaciclib] | 1.32
NC1(C(=O)N[C@@H](CCO)c2ccc(Cl)cc2)CCN(c2nc[nH]c3nccc2-3)CC1 [capivasertib] | 1.5
CC(C)n1nc(-c2ccc3oc(N)nc3c2)c2c(N)ncnc21 [sapanisertib] | 1.49
O=C(c1ccc(F)c(F)c1Nc1ccc(I)cc1F)N1CC(O)([C@@H]2CCCCN2)C1 [cobimetinib] | 1.45
C[C@H](NC(=O)CCC(F)(F)F)C(=O)N[C@@H]1C(=O)N(CCO)c2ncccc2-c2ccccc21 [crenigacestat] | 1.29
Cc1cc(Nc2ncc(Cl)c(Nc3ccccc3S(=O)(=O)C(C)C)n2)c(OC(C)C)cc1C1CCNCC1 [ceritinib] | 1.62
CS(=O)(=O)c1ccc(C(=O)Nc2ccc(Cl)c(-c3ccccn3)c2)c(Cl)c1 [vismodegib] | 1.74
NC(=O)c1cccc2cn(-c3ccc([C@@H]4CCCNC4)cc3)nc12 [niraparib] | 2.08

Same assay, conditions: 0.005 µM; days in culture: 199

Structure (SMILES) | CTG-3D luminescence at 96 h
C[C@@H]1COCCN1c1cc(C2([S@](C)(=N)=O)CC2)nc(-c2cc[nH]c3nccc2-3)n1 [ceralasertib] | 1.36
CCN1CCN(Cc2ccc(Nc3ncc(F)c(-c4cc(F)c5nc(C)n(C(C)C)c5c4)n3)nc2)CC1 [abemaciclib] | 2.03
NC1(C(=O)N[C@@H](CCO)c2ccc(Cl)cc2)CCN(c2nc[nH]c3nccc2-3)CC1 [capivasertib] | 1.5
CC(C)n1nc(-c2ccc3oc(N)nc3c2)c2c(N)ncnc21 [sapanisertib] | 1.33
O=C(c1ccc(F)c(F)c1Nc1ccc(I)cc1F)N1CC(O)([C@@H]2CCCCN2)C1 [cobimetinib] | 1.59
C[C@H](NC(=O)CCC(F)(F)F)C(=O)N[C@@H]1C(=O)N(CCO)c2ncccc2-c2ccccc21 [crenigacestat] | 1.49
Cc1cc(Nc2ncc(Cl)c(Nc3ccccc3S(=O)(=O)C(C)C)n2)c(OC(C)C)cc1C1CCNCC1 [ceritinib] | 1.18
CS(=O)(=O)c1ccc(C(=O)Nc2ccc(Cl)c(-c3ccccn3)c2)c(Cl)c1 [vismodegib] | 2.17
NC(=O)c1cccc2cn(-c3ccc([C@@H]4CCCNC4)cc3)nc12 [niraparib] | 1.96

Same assay, conditions: 0.1 µM; days in culture: 153

Structure (SMILES) | CTG-3D luminescence at 96 h
C[C@@H]1COCCN1c1cc(C2([S@](C)(=N)=O)CC2)nc(-c2cc[nH]c3nccc2-3)n1 [ceralasertib] | 2.28
CCN1CCN(Cc2ccc(Nc3ncc(F)c(-c4cc(F)c5nc(C)n(C(C)C)c5c4)n3)nc2)CC1 [abemaciclib] | 1.71
NC1(C(=O)N[C@@H](CCO)c2ccc(Cl)cc2)CCN(c2nc[nH]c3nccc2-3)CC1 [capivasertib] | 2.32
CC(C)n1nc(-c2ccc3oc(N)nc3c2)c2c(N)ncnc21 [sapanisertib] | 0.842
O=C(c1ccc(F)c(F)c1Nc1ccc(I)cc1F)N1CC(O)([C@@H]2CCCCN2)C1 [cobimetinib] | 1.1
C[C@H](NC(=O)CCC(F)(F)F)C(=O)N[C@@H]1C(=O)N(CCO)c2ncccc2-c2ccccc21 [crenigacestat] | 1.66
Cc1cc(Nc2ncc(Cl)c(Nc3ccccc3S(=O)(=O)C(C)C)n2)c(OC(C)C)cc1C1CCNCC1 [ceritinib] | 1.93
CS(=O)(=O)c1ccc(C(=O)Nc2ccc(Cl)c(-c3ccccn3)c2)c(Cl)c1 [vismodegib] | 1.54
NC(=O)c1cccc2cn(-c3ccc([C@@H]4CCCNC4)cc3)nc12 [niraparib] | 1.82

Same assay, conditions: 0.1 µM; days in culture: 172

Structure (SMILES) | CTG-3D luminescence at 96 h
C[C@@H]1COCCN1c1cc(C2([S@](C)(=N)=O)CC2)nc(-c2cc[nH]c3nccc2-3)n1 [ceralasertib] | 1.88
CCN1CCN(Cc2ccc(Nc3ncc(F)c(-c4cc(F)c5nc(C)n(C(C)C)c5c4)n3)nc2)CC1 [abemaciclib] | 1.67
NC1(C(=O)N[C@@H](CCO)c2ccc(Cl)cc2)CCN(c2nc[nH]c3nccc2-3)CC1 [capivasertib] | 1.56
CC(C)n1nc(-c2ccc3oc(N)nc3c2)c2c(N)ncnc21 [sapanisertib] | 0.699
O=C(c1ccc(F)c(F)c1Nc1ccc(I)cc1F)N1CC(O)([C@@H]2CCCCN2)C1 [cobimetinib] | 0.984
C[C@H](NC(=O)CCC(F)(F)F)C(=O)N[C@@H]1C(=O)N(CCO)c2ncccc2-c2ccccc21 [crenigacestat] | 1.66
Cc1cc(Nc2ncc(Cl)c(Nc3ccccc3S(=O)(=O)C(C)C)n2)c(OC(C)C)cc1C1CCNCC1 [ceritinib] | 1.31
CS(=O)(=O)c1ccc(C(=O)Nc2ccc(Cl)c(-c3ccccn3)c2)c(Cl)c1 [vismodegib] | 1.87
NC(=O)c1cccc2cn(-c3ccc([C@@H]4CCCNC4)cc3)nc12 [niraparib] | 1.56

Same assay, conditions: 0.1 µM; days in culture: 190

Structure (SMILES) | CTG-3D luminescence at 96 h
C[C@@H]1COCCN1c1cc(C2([S@](C)(=N)=O)CC2)nc(-c2cc[nH]c3nccc2-3)n1 [ceralasertib] | 1.27
CCN1CCN(Cc2ccc(Nc3ncc(F)c(-c4cc(F)c5nc(C)n(C(C)C)c5c4)n3)nc2)CC1 [abemaciclib] | 1.35
NC1(C(=O)N[C@@H](CCO)c2ccc(Cl)cc2)CCN(c2nc[nH]c3nccc2-3)CC1 [capivasertib] | 0.925
CC(C)n1nc(-c2ccc3oc(N)nc3c2)c2c(N)ncnc21 [sapanisertib] | 0.534
O=C(c1ccc(F)c(F)c1Nc1ccc(I)cc1F)N1CC(O)([C@@H]2CCCCN2)C1 [cobimetinib] | 1
C[C@H](NC(=O)CCC(F)(F)F)C(=O)N[C@@H]1C(=O)N(CCO)c2ncccc2-c2ccccc21 [crenigacestat] | 0.549
Cc1cc(Nc2ncc(Cl)c(Nc3ccccc3S(=O)(=O)C(C)C)n2)c(OC(C)C)cc1C1CCNCC1 [ceritinib] | 1.01
CS(=O)(=O)c1ccc(C(=O)Nc2ccc(Cl)c(-c3ccccn3)c2)c(Cl)c1 [vismodegib] | 1.58
NC(=O)c1cccc2cn(-c3ccc([C@@H]4CCCNC4)cc3)nc12 [niraparib] | 1.58

Same assay, conditions: 0.1 µM; days in culture: 199

Structure (SMILES) | CTG-3D luminescence at 96 h
C[C@@H]1COCCN1c1cc(C2([S@](C)(=N)=O)CC2)nc(-c2cc[nH]c3nccc2-3)n1 [ceralasertib] | 1.25
CCN1CCN(Cc2ccc(Nc3ncc(F)c(-c4cc(F)c5nc(C)n(C(C)C)c5c4)n3)nc2)CC1 [abemaciclib] | 1.74
NC1(C(=O)N[C@@H](CCO)c2ccc(Cl)cc2)CCN(c2nc[nH]c3nccc2-3)CC1 [capivasertib] | 1.6
CC(C)n1nc(-c2ccc3oc(N)nc3c2)c2c(N)ncnc21 [sapanisertib] | 0.585
O=C(c1ccc(F)c(F)c1Nc1ccc(I)cc1F)N1CC(O)([C@@H]2CCCCN2)C1 [cobimetinib] | 1.4
C[C@H](NC(=O)CCC(F)(F)F)C(=O)N[C@@H]1C(=O)N(CCO)c2ncccc2-c2ccccc21 [crenigacestat] | 1.38
Cc1cc(Nc2ncc(Cl)c(Nc3ccccc3S(=O)(=O)C(C)C)n2)c(OC(C)C)cc1C1CCNCC1 [ceritinib] | 1.49
CS(=O)(=O)c1ccc(C(=O)Nc2ccc(Cl)c(-c3ccccn3)c2)c(Cl)c1 [vismodegib] | 2.07
NC(=O)c1cccc2cn(-c3ccc([C@@H]4CCCNC4)cc3)nc12 [niraparib] | 1.54
